For this experiment, the target named is human PD-L1 (Homo sapiens (Human), UniProt Q9NZQ7). The experiment is described as follows: T cell activation luciferase reporter cell culture system (T Cell Activation Assay). It counts as cell-based. To be noted: luciferase reporter assay; PD-L1 aAPC/CHO-K1 cells with PD-1 effector Jurkat T cells.

Usually EC50 stands for the midpoint of the concentration-response curve. Low readings indicate an effect from little substance, high ones a need for much substance.

Chain of human PD-L1 (Q9NZQ7 19-290): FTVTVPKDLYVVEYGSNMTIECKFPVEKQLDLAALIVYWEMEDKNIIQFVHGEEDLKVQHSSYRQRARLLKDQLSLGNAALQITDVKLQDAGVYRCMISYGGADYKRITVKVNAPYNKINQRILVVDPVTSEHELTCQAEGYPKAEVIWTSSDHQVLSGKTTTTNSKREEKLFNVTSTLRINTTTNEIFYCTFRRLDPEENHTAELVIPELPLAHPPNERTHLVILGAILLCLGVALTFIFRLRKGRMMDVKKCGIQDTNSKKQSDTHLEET

`COc1cc(-c2nccc(-c3cccc(-c4ccc(CNC5CCN(C(C)=O)CC5)c(OC)n4)c3Cl)c2Cl)ccc1CN1CC2(CC(O)C2)C1` [Example 361, 1-(4-(((6-(2-Chloro-3-(3-chloro-2-(4-((6-hydroxy-2-azaspiro[3.3]heptan-2-yl)methyl)-3-methoxyphenyl)pyridin-4-yl)phenyl)-2-methoxypyridin-3-yl)methyl)amino)piperidin-1-yl)ethan-1-one] displayed a concentration for a half-maximal effect (EC50) of 40.5 nM.

Compound `CNCc1ccc(-c2nccc(-c3cccc(-c4ccc(CNC)c(OC)n4)c3C)c2C)cc1OC` [Example 362, 1-(2-Methoxy-4-(4-(3-(6-methoxy-5-((methylamino)methyl)pyridin-2-yl)-2-methylphenyl)-3-methylpyridin-2-yl)phenyl)-N-methylmethanamine] displayed an EC50 of 261 nM.

As to `COc1cc(-c2nccc(-c3cccc(-c4ccc(CNC5CCN(C(C)=O)CC5)c(OC)n4)c3C)c2C)ccc1CNC1CCN(C(C)=O)CC1` [Example 363, 1-(4-(((6-(3-(2-(4-(((1-Acetylpiperidin-4-yl)amino)methyl)-3-methoxyphenyl)-3-methylpyridin-4-yl)-2-methylphenyl)-2-methoxypyridin-3-yl)methyl)amino)piperidin-1-yl)ethan-1-one], a half-maximal response (EC50) required 400 nM.

Turning to `COc1cc(-c2nccc(-c3cccc(-c4ccc(CN[C@H]5CC[C@H](O)CC5)c(OC)n4)c3Cl)c2Cl)ccc1CN[C@H]1CC[C@H](O)CC1` [Example 364, (1r,4r)-4-(((6-(2-Chloro-3-(3-chloro-2-(4-((((1r,4r)-4-hydroxycyclohexyl)amino)methyl)-3-methoxyphenyl)pyridin-4-yl)phenyl)-2-methoxypyridin-3-yl)methyl)amino)cyclohexan-1-ol], a half-maximal response (EC50) required 28.5 nM. Compared with the last compound, the EC50 is about 14-fold lower.

`COc1cc(-c2nccc(-c3cccc(-c4ccc(CNC5CC6(COC6)C5)c(OC)n4)c3Cl)c2Cl)ccc1CNC1CC2(COC2)C1` (stereo not drawn) [Example 365, N-(4-(4-(3-(5-(((2-Oxaspiro[3.3]heptan-6-yl)amino)methyl)-6-methoxypyridin-2-yl)-2-chlorophenyl)-3-chloropyridin-2-yl)-2-methoxybenzyl)-2-oxaspiro[3.3]heptan-6-amine]: the EC50 was 19.9 nM.

Regarding `COc1cc(-c2nccc(-c3cccc4c3CC[C@@H]4Nc3nc(OC)c(CN4CC5(CNC(=O)C5)C4)nc3C(F)(F)F)c2Cl)ccc1CN1CC2(CNC(=O)C2)C1` [Example 366, (S)-2-(4-(3-Chloro-4-(1-((6-methoxy-5-((7-oxo-2,6-diazaspiro[3.4]octan-2-yl)methyl)-3-(trifluoromethyl)pyrazin-2-yl)amino)-2,3-dihydro-1H-inden-4-yl)pyridin-2-yl)-2-methoxybenzyl)-2,6-diazaspiro[3.4]octan-7-one], the response was half-maximal at 159 nM (EC50).

Compound `COc1cc(-c2nccc(-c3cccc4c3CC[C@@H]4Nc3nc(OC)c(CN4CC5(C4)CN(C(C)=O)C5)nc3C(F)(F)F)c2Cl)ccc1CN1CC2(C1)CN(C(C)=O)C2` [Example 367, (S)-1-(6-((5-((4-(2-(4-((6-Acetyl-2,6-diazaspiro[3.3]heptan-2-yl)methyl)-3-methoxyphenyl)-3-chloropyridin-4-yl)-2,3-dihydro-1H-inden-1-yl)amino)-3-methoxy-6-(trifluoromethyl)pyrazin-2-yl)methyl)-2,6-diazaspiro[3.3]heptan-2-yl)ethan-1-one] came in with an EC50 of 412 nM. This EC50 is about 2.6-fold higher than that of the compound before.

The compound `COc1cc(-c2nccc(-c3cccc(-c4ccc(CN5CC6(CNC(=O)C6)C5)c(OC)n4)c3Cl)c2C)ccc1CN1CC2(CNC(=O)C2)C1` [Example 368, 2-((6-(2-Chloro-3-(2-(3-methoxy-4-((7-oxo-2,6-diazaspiro[3.4]octan-2-yl)methyl)phenyl)-3-methylpyridin-4-yl)phenyl)-2-methoxypyridin-3-yl)methyl)-2,6-diazaspiro[3.4]octan-7-one] yielded a concentration giving a half-maximal response (EC50) of 37.4 nM.

Compound `COc1cc(-c2nccc(-c3cccc(-c4ccc(CN5CC6(C5)CN(C(C)=O)C6)c(OC)n4)c3Cl)c2C)ccc1CN1CC2(C1)CN(C(C)=O)C2` [Example 369, 1-(6-((6-(3-(2-(4-((6-Acetyl-2,6-diazaspiro[3.3]heptan-2-yl)methyl)-3-methoxyphenyl)-3-methylpyridin-4-yl)-2-chlorophenyl)-2-methoxypyridin-3-yl)methyl)-2,6-diazaspiro[3.3]heptan-2-yl)ethan-1-one] displayed a 50% effective concentration (EC50) of 369 nM.

`COc1nc(-c2cccc(-c3ccnc(-c4cc(OC)c5nc(CN[C@H]6C[C@](C)(O)C6)nn5c4)c3Cl)c2Cl)ccc1CNC[C@@H]1CCC(=O)N1` [Example 370, (S)-5-((((6-(2-Chloro-3-(3-chloro-2-(2-((((1r,3r)-3-hydroxy-3-methylcyclobutyl)amino)methyl)-8-methoxy-[1,2,4]triazolo[1,5-a]pyridin-6-yl)pyridin-4-yl)phenyl)-2-methoxypyridin-3-yl)methyl)amino)methyl)pyrrolidin-2-one] gave an EC50 of 41.2 nM.

For `COc1cc(-c2nccc(-c3cccc(-c4ccc(CNC5CCN(C(C)=O)CC5)c(OC)n4)c3Cl)c2Cl)ccc1CNC1CCN(C(=O)C(C)C)CC1` [Example 371, 1-(4-((4-(4-(3-(5-(((1-acetylpiperidin-4-yl)amino)methyl)-6-methoxypyridin-2-yl)-2-chlorophenyl)-3-chloropyridin-2-yl)-2-methoxybenzyl)amino)piperidin-1-yl)-2-methylpropan-1-one], the midpoint of the response, the EC50, lay at 48.7 nM.

As for `COc1cc(-c2nccc(-c3cccc(-c4ccc(CNC5CCN(S(C)(=O)=O)CC5)c(OC)n4)c3Cl)c2Cl)ccc1CNC1CCN(S(C)(=O)=O)CC1` [Example 372, N-((6-(2-Chloro-3-(3-chloro-2-(3-methoxy-4-(((1-(methylsulfonyl)piperidin-4-yl)amino)methyl)phenyl)pyridin-4-yl)phenyl)-2-methoxypyridin-3-yl)methyl)-1-(methylsulfonyl)piperidin-4-amine], the EC50 was found to be 23.5 nM.

`COc1cc(-c2nccc(-c3cccc(-c4ccc(CNCCCCC(N)=O)c(OC)n4)c3Cl)c2Cl)ccc1CNCCCCC(N)=O` [Example 373, 5-(((6-(3-(2-(4-(((5-Amino-5-oxopentyl)amino)methyl)-3-methoxyphenyl)-3-chloropyridin-4-yl)-2-chlorophenyl)-2-methoxypyridin-3-yl)methyl)amino)pentanamide] returned an EC50 of 152 nM.

In the case of `COc1cc(-c2nccc(-c3cccc(-c4ccc(CN[C@@H]5CCN(C(C)=O)C5)c(OC)n4)c3Cl)c2Cl)ccc1CN[C@@H]1CCN(C(C)=O)C1` [Example 374, 1-((R)-3-(((6-(3-(2-(4-((((R)-1-Acetylpyrrolidin-3-yl)amino)methyl)-3-methoxyphenyl)-3-chloropyridin-4-yl)-2-chlorophenyl)-2-methoxypyridin-3-yl)methyl)amino)pyrrolidin-1-yl)ethan-1-one], the half-maximal effective concentration (EC50) was 44.6 nM. This EC50 is about 3.4-fold lower than that of the compound before.

`COc1nc(-c2cccc(-c3ccnc(-c4cnc5c(CN6CCC(NC(C)=O)CC6)cn(C)c5c4)c3Cl)c2Cl)ccc1CNC[C@@H]1CCC(=O)N1` [Example 377, (S)—N-(1-((6-(3-chloro-4-(2-chloro-3-(6-methoxy-5-((((5-oxopyrrolidin-2-yl)methyl)amino)methyl)pyridin-2-yl)phenyl)pyridin-2-yl)-1-methyl-1H-pyrrolo[3,2-b]pyridin-3-yl)methyl)piperidin-4-yl)acetamide] gave an EC50 of 405 nM.

`COc1nc(-c2cccc(-c3ccnc(-c4cnc5c(CN6CC7(CNC(=O)C7)C6)cn(C)c5c4)c3Cl)c2Cl)ccc1CNC[C@@H]1CCC(=O)N1` [Example 378, (S)-2-((6-(3-Chloro-4-(2-chloro-3-(6-methoxy-5-((((5-oxopyrrolidin-2-yl)methyl)amino)methyl)pyridin-2-yl)phenyl)pyridin-2-yl)-1-methyl-1H-pyrrolo[3,2-b]pyridin-3-yl)methyl)-2,6-diazaspiro[3.4]octan-7-one] came in with an EC50 of 73.8 nM.

In the case of `COc1cc(-c2nccc(-c3cccc(-c4ccc(CNC5CCN(C(C)=O)CC5)c(OC)n4)c3Cl)c2Cl)ccc1CNC1CC2(COC2)C1` [Example 379, 1-(4-(((6-(3-(2-(4-(((2-Oxaspiro[3.3]heptan-6-yl)amino)methyl)-3-methoxyphenyl)-3-chloropyridin-4-yl)-2-chlorophenyl)-2-methoxypyridin-3-yl)methyl)amino)piperidin-1-yl)ethan-1-one], a half-maximal effect (EC50) was put at 45.3 nM.

With `COc1cc(-c2nccc(-c3cccc(-c4ccc(CNC5CCN(C(=O)C(C)C)CC5)c(OC)n4)c3Cl)c2Cl)ccc1CNC1CCN(C(C)=O)CC1` [Example 382, 1-(4-(((6-(3-(2-(4-(((1-acetylpiperidin-4-yl)amino)methyl)-3-methoxyphenyl)-3-chloropyridin-4-yl)-2-chlorophenyl)-2-methoxypyridin-3-yl)methyl)amino)piperidin-1-yl)-2-methylpropan-1-one], it took 15.3 nM to reach a half-maximal effect (EC50). Against the preceding compound, the EC50 is about 3-fold lower.

Regarding `COc1nc(-c2cccc(-c3ccnc(-c4cc(OC)c5nc(CN[C@H]6CC[C@H](O)CC6)cn5c4)c3Cl)c2Cl)ccc1CNC[C@@H]1CCC(=O)N1` [Example 384, (S)-5-((((6-(2-Chloro-3-(3-chloro-2-(2-((((1r,4r)-4-hydroxycyclohexyl)amino)methyl)-8-methoxyimidazo[1,2-a]pyridin-6-yl)pyridin-4-yl)phenyl)-2-methoxypyridin-3-yl)methyl)amino)methyl)pyrrolidin-2-one], the EC50 was found to be 70 nM. This EC50 lies about 4.6-fold higher than the previous one.

Turning to `COc1cc(-c2nccc(-c3cccc(-c4ccc(CN[C@H]5C[C@](C)(O)C5)c(OC)n4)c3Cl)c2Cl)ccc1CN[C@H]1C[C@](C)(O)C1` [Example 385, (1r,3r)-3-(((6-(2-Chloro-3-(3-chloro-2-(4-((((1r,3r)-3-hydroxy-3-methylcyclobutyl)amino)methyl)-3-methoxyphenyl)pyridin-4-yl)phenyl)-2-methoxypyridin-3-yl)methyl)amino)-1-methylcyclobutan-1-ol], the response was half-maximal at 17.8 nM (EC50).

With `COc1cc(-c2nccc(-c3cccc(-c4ccc(CN5CC6(COC6)C5)c(OC)n4)c3Cl)c2Cl)ccc1CN1CC2(COC2)C1` [Example 387, 6-((6-(3-(2-(4-((2-Oxa-6-azaspiro[3.3]heptan-6-yl)methyl)-3-methoxyphenyl)-3-chloropyridin-4-yl)-2-chlorophenyl)-2-methoxypyridin-3-yl)methyl)-2-oxa-6-azaspiro[3.3]heptane], the EC50 turned out to be 8.22 nM.
